Assay results from PMC4522710, “A putative ATPase mediates RNA transcription and capping in a dsRNA virus” (eLife, 2015).

Target: T1, CPV turret protein (TP) (Bombyx mori cypovirus 1, UniProt Q914N6)
T1 construct: native full-length protein in intact virions purified from polyhedra; GTase, bridge, MT-1 and MT-2 domains; pentameric turret
Experiment: cryoEM structure of virion complex
Assay type: binding
Conditions: 10 mM MgCl2, pH 8.0, 31 °C

Row | SMILES | cryoEM structure of virion complex (2 mM GTP, GTase site (all four structures), also putative ATPase site with SAM without ATP (3JB2)) | cryoEM structure of virion complex (1 mM SAM, MT-2 site (SAM alone, 3JB1), MT-1 and MT-2 sites with ATP and/or GTP present (3JAY, 3JB2, 3JB3))
1 | Nc1nc2c(ncn2[C@@H]2O[C@H](COP(=O)(O)OP(=O)(O)OP(=O)(O)O)[C@@H](O)[C@H]2O)c(=O)[nH]1 [GTP] | In G-CPV, one GTP binds to the GTase site of GTase domain. | –
2 | C[S+](CC[C@H](N)C(=O)O)C[C@H]1O[C@@H](n2cnc3c(N)ncnc32)[C@H](O)[C@@H]1O (some centres unmarked) [SAM] | – | In S-CPV, one SAM binds to the MT-2 domain of each TP.
